Measured values reported in ChEMBL document CHEMBL1909046, “DrugMatrix in vitro pharmacology data”.
pIC50, pKi: −log10 of the molar value.

How the values were obtained:
[1] = molecular target: Beta-2 adrenergic receptor (Homo sapiens, UniProt P07550); assay: DRUGMATRIX: Adrenergic beta2 radioligand binding (ligand: [3H] CGP-12177); type: cell membranes, CHO, Membrane; settings: Not Active = under 50% inhibition at 10 µM; for IC50: cho
[2] = molecular target: T1, Vasoactive intestinal polypeptide receptor 1 (Homo sapiens, UniProt P32241); type: cell membranes, Membrane; settings: ht-29; also: in other assays of this panel Not Active means under 50% inhibition at 10 µM
T1 sequence (P32241 whole entry): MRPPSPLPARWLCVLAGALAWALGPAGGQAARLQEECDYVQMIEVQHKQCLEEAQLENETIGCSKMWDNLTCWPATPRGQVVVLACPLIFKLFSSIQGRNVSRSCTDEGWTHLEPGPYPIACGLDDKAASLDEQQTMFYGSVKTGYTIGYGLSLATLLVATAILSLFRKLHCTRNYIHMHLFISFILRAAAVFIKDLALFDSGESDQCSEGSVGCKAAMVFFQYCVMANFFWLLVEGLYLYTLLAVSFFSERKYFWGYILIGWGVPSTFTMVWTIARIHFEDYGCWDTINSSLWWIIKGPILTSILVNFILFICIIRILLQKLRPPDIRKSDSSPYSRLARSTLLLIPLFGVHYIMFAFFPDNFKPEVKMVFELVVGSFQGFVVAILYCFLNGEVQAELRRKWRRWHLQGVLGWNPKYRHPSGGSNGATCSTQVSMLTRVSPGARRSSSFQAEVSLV

[3] = molecular target: Cannabinoid receptor 1 (Homo sapiens, UniProt P21554); type: cell membranes, Membrane; settings: chem-1; also: in other assays of this panel Not Active means under 50% inhibition at 10 µM
Chain of Cannabinoid receptor 1 (P21554 whole entry): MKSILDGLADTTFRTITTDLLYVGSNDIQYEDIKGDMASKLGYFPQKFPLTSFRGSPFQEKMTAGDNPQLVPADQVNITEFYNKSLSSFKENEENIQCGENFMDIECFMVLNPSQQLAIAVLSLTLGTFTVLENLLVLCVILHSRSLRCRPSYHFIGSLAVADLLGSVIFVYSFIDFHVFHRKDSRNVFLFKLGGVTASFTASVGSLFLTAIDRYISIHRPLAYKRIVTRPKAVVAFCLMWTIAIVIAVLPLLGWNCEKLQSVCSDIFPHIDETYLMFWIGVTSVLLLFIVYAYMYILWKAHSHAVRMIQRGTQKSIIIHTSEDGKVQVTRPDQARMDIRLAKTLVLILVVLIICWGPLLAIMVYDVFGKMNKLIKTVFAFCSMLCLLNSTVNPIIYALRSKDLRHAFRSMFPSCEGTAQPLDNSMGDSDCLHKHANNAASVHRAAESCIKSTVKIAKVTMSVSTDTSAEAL

[4] = molecular target: Carbonic anhydrase 2 (Homo sapiens, UniProt P00918); assay: DRUGMATRIX: Carbonic Anhydrase II enzyme inhibition (substrate: 4-Nitrophenyl acetate (4-NPA)); type: tissue-based, Erythrocyte; settings: erythrocyte; Not Active = under 50% inhibition at 10 µM
[5] = DRUGMATRIX: Interleukin IL-1 radioligand binding (ligand: [125I] interleukin 1beta); type: cell membranes, Membrane; settings: nih3t3; Not Active = under 50% inhibition at 10 µM
[6] = molecular target: T2, Amine oxidase [flavin-containing] A (Homo sapiens, UniProt P21397); assay: DRUGMATRIX: Monoamine Oxidase MAO-A enzyme inhibition (substrate: Kynuramine); set-up: species or system BTI-TN-5B1-4; settings: bti-tn-5b1-4; Not Active = under 50% inhibition at 10 µM
T2 sequence (P21397 whole entry): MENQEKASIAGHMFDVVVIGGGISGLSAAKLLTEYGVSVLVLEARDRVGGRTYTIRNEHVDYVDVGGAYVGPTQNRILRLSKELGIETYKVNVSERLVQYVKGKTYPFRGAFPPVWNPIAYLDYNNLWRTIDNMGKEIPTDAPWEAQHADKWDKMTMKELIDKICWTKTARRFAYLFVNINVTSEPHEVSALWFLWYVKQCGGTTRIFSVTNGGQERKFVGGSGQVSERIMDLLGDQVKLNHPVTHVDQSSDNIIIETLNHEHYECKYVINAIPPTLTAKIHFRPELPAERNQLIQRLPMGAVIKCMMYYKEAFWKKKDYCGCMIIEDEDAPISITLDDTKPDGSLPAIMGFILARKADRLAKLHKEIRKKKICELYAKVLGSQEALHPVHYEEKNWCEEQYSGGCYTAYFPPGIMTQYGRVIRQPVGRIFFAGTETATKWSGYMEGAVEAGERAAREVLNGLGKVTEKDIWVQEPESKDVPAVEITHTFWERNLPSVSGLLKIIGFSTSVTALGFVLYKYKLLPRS

[7] = molecular target: T3, Muscarinic acetylcholine receptor M2 (Homo sapiens, UniProt P08172); type: cell membranes, CHO-K1, Membrane; settings: cho-k1; also: in other assays of this panel Not Active means under 50% inhibition at 10 µM
T3 sequence (P08172 whole entry): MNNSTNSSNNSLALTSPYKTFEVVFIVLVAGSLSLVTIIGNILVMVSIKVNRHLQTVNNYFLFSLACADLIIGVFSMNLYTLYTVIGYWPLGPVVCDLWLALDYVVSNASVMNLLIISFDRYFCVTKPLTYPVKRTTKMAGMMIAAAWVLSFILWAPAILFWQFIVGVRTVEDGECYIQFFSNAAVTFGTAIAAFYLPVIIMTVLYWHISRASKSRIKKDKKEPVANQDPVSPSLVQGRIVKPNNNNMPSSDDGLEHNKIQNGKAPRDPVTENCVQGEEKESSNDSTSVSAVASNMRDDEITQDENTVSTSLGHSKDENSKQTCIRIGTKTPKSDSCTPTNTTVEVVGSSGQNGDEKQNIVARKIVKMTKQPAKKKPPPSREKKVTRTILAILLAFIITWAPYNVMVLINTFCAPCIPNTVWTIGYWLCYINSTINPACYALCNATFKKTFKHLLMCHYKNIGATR

Chain of Beta-2 adrenergic receptor (P07550 whole entry): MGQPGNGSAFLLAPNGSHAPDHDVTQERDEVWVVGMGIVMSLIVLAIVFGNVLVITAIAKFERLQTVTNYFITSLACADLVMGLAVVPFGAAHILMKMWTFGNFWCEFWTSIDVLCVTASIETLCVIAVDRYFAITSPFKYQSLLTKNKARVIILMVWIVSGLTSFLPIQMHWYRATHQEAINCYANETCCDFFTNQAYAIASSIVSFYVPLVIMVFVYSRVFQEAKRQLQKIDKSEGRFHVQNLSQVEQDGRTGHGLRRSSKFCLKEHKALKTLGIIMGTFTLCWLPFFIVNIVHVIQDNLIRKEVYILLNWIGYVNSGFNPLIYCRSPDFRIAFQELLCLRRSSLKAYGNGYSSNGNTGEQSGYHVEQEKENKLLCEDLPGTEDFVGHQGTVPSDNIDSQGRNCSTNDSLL

Row | Structure (SMILES) | IC50 [1] | IC50 [2] | IC50 [3] | IC50 [4] | IC50 [5] | Ki [5] | IC50 [6] | IC50 [7] | pIC50 ([1]; read-out: IC50) | pKi ([1]; read-out: Ki)
1 | CO[C@@]1(NC(=O)CSCC#N)C(=O)N2C(C(=O)O)=C(CSc3nnnn3C)CS[C@@H]21 [CEFMETAZOLE] | Not Active | Not Active | Not Active | Not Active | Not Active | Not Active | Not Active | Not Active |  | 
2 | CN(C(=O)CCCOc1ccc2[nH]c(=O)ccc2c1)C1CCCCC1 [CILOSTAMIDE] | Not Active | Not Active | Not Active | Not Active | Not Active | Not Active | Not Active | Not Active |  | 
3 | CC(C)(Oc1ccc(C2CC2(Cl)Cl)cc1)C(=O)O (stereo not given) [CIPROFIBRATE] | Not Active | Not Active | Not Active | Not Active | Not Active | Not Active | Not Active | Not Active |  | 
4 | Nc1nc(Cl)nc2c1ncn2[C@H]1C[C@H](O)[C@@H](CO)O1 [CLADRIBINE] | Not Active | Not Active | Not Active | Not Active | Not Active | Not Active | Not Active | Not Active |  | 
5 | CC[C@H]1OC(=O)[C@H](C)[C@@H](O[C@H]2C[C@@](C)(OC)[C@@H](O)[C@H](C)O2)[C@H](C)[C@@H](O[C@@H]2O[C@H](C)C[C@H](N(C)C)[C@H]2O)[C@](C)(OC)C[C@@H](C)C(=O)[C@H](C)[C@@H](O)[C@]1(C)O [CLARITHROMYCIN] | Not Active | Not Active | Not Active | Not Active | Not Active | Not Active | Not Active | Not Active |  | 
6 | CCC[C@@H]1C[C@@H](C(=O)N[C@@H]([C@H]2O[C@H](SC)[C@H](O)[C@@H](O)[C@H]2O)[C@H](C)Cl)N(C)C1 [CLINDAMYCIN] | Not Active | Not Active | Not Active | Not Active | Not Active | Not Active | Not Active | Not Active |  | 
7 | O=C(O)c1cc(=O)c2c(OCC(O)COc3cccc4oc(C(=O)O)cc(=O)c34)cccc2o1 [CROMOLYN] | Not Active | Not Active | Not Active | Not Active | Not Active | Not Active | Not Active | Not Active |  | 
8 | O=P1(N(CCCl)CCCl)NCCCO1 (stereo not given) [CYCLOPHOSPHAMIDE ANHYDROUS] | Not Active | Not Active | Not Active | Not Active | Not Active | Not Active | Not Active | Not Active |  | 
9 | CC(=O)O[C@]1(C(C)=O)CC[C@H]2[C@@H]3C=C(Cl)C4=CC(=O)[C@@H]5C[C@@H]5[C@]4(C)[C@H]3CC[C@@]21C [CYPROTERONE ACETATE] | Not Active | Not Active | Not Active | Not Active | Not Active | Not Active | Not Active | Not Active |  | 
10 | Nc1nc(N)nc(NC2CC2)n1 [CYROMAZINE] | Not Active | Not Active | Not Active | Not Active | Not Active | Not Active | Not Active | Not Active |  | 
11 | C#C[C@]1(O)CC[C@H]2[C@@H]3CCC4=Cc5oncc5C[C@]4(C)[C@H]3CC[C@@]21C [DANAZOL] | Not Active | Not Active | Not Active | Not Active | Not Active | Not Active | Not Active | Not Active |  | 
12 | CCN[C@@H](C)Cc1cccc(C(F)(F)F)c1 [DEXFENFLURAMINE] | Not Active | Not Active | Not Active | Not Active | Not Active | Not Active | Not Active | Not Active |  | 
13 | C[C@H](C(=O)O)c1cccc(C(=O)c2ccccc2)c1 [DEXKETOPROFEN] | Not Active | Not Active | Not Active | Not Active | Not Active | Not Active | Not Active | Not Active |  | 
14 | CN1C(=O)CN=C(c2ccccc2)c2cc(Cl)ccc21 [DIAZEPAM] | Not Active | Not Active | Not Active | Not Active | Not Active | Not Active | Not Active | Not Active |  | 
15 | CN1C[C@H](C(=O)N[C@]2(C)O[C@@]3(O)[C@@H]4CCCN4C(=O)[C@H](Cc4ccccc4)N3C2=O)C[C@@H]2c3cccc4[nH]cc(c34)C[C@H]21 [DIHYDROERGOTAMINE] | Not Active | Not Active | Not Active | Not Active | Not Active | Not Active | Not Active | Not Active |  | 
16 | Cc1c(N(C)CS(=O)(=O)[O-])c(=O)n(-c2ccccc2)n1C.[Na+] [DIPYRONE SODIUM] | Not Active | Not Active | Not Active | Not Active | Not Active | Not Active | Not Active | Not Active |  | 
17 | CC(CCc1ccc(O)cc1)NCCc1ccc(O)c(O)c1 (stereo not given) [DOBUTAMINE] |  | Not Active | Not Active | Not Active | Not Active | Not Active | Not Active | Not Active | 5.82 | 5.98
18 | CCn1cc(C(=O)O)c(=O)c2cc(F)c(N3CCNCC3)nc21 [ENOXACIN] | Not Active | Not Active | Not Active | Not Active | Not Active | Not Active | Not Active | Not Active |  | 
19 | CCC(=O)O[C@H]1[C@H](O[C@@H]2[C@@H](C)[C@H](O[C@H]3C[C@@](C)(OC)[C@@H](O)[C@H](C)O3)[C@@H](C)C(=O)O[C@H](CC)[C@@](C)(O)[C@H](O)[C@@H](C)C(=O)[C@H](C)C[C@@]2(C)O)O[C@H](C)C[C@@H]1N(C)C [ERYTHROMYCIN PROPIONATE] | Not Active | Not Active | Not Active | Not Active | Not Active | Not Active | Not Active | Not Active |  | 
20 | C=C(CC)C(=O)c1ccc(OCC(=O)O)c(Cl)c1Cl [ETHACRYNIC ACID] | Not Active | Not Active | Not Active | Not Active | Not Active | Not Active | Not Active | Not Active |  | 
21 | C#C[C@]1(O)CC[C@H]2[C@@H]3CCc4cc(O)ccc4[C@H]3CC[C@@]21C [ETHINYL ESTRADIOL] | Not Active | Not Active | Not Active | Not Active | Not Active | Not Active | Not Active | Not Active |  | 
22 | OCCO [ETHYLENE GLYCOL] | Not Active | Not Active | Not Active | Not Active | Not Active | Not Active | Not Active | Not Active |  | 
23 | CC(=O)OCC(CCn1cnc2cnc(N)nc21)COC(C)=O [FAMCICLOVIR] | Not Active | Not Active | Not Active | Not Active | Not Active | Not Active | Not Active | Not Active |  | 
